Numbers after ± are expanded uncertainties.
Experiment: xn = mol fraction of the nth substance listed
Details: 101 kPa, Liquid; for speed of sound: Pulse-echo method

CCCOCC(C)OCC(C)O (stereo not given) [1-(1-methyl-2-propoxyethoxy)-2-propanol] + CCCCN
Details | mass density, 288.15 K [kg/m3] | mass density, 293.15 K [kg/m3] | mass density, 298.15 K [kg/m3] | mass density, 303.15 K [kg/m3] | mass density, 308.15 K [kg/m3] | speed of sound, 288.15 K [m/s] | speed of sound, 293.15 K [m/s] | speed of sound, 298.15 K [m/s] | speed of sound, 303.15 K [m/s] | speed of sound, 308.15 K [m/s]
x1 = 0.1119 | 781.657 ± 0.5 | 776.972 ± 0.51 | 772.263 ± 0.51 | 767.527 ± 0.52 | 762.757 ± 0.53 | 1299.1 ± 0.83 | 1277.8 ± 0.82 | 1256.7 ± 0.82 | 1235.5 ± 0.81 | 1214.2 ± 0.81
x1 = 0.1625 | 797.6 ± 0.48 | 792.951 ± 0.48 | 788.269 ± 0.49 | 783.562 ± 0.5 | 778.83 ± 0.5 | 1301.8 ± 0.83 | 1281 ± 0.83 | 1260.2 ± 0.82 | 1239.5 ± 0.81 | 1218.7 ± 0.81
x1 = 0.2153 | 812.62 ± 0.45 | 807.989 ± 0.46 | 803.334 ± 0.47 | 798.647 ± 0.47 | 793.946 ± 0.48 | 1304.3 ± 0.83 | 1283.9 ± 0.83 | 1263.4 ± 0.82 | 1243.2 ± 0.81 | 1222.8 ± 0.81
x1 = 0.2414 | 819.423 ± 0.44 | 814.802 ± 0.45 | 810.159 ± 0.46 | 805.481 ± 0.46 | 800.782 ± 0.47 | 1305.4 ± 0.83 | 1285.2 ± 0.83 | 1264.8 ± 0.82 | 1244.8 ± 0.81 | 1224.6 ± 0.81
x1 = 0.3043 | 834.258 ± 0.42 | 829.657 ± 0.43 | 825.032 ± 0.43 | 820.381 ± 0.44 | 815.702 ± 0.45 | 1307.7 ± 0.83 | 1287.9 ± 0.83 | 1267.8 ± 0.82 | 1248.3 ± 0.81 | 1228.4 ± 0.81
x1 = 0.35 | 843.808 ± 0.41 | 839.22 ± 0.41 | 834.611 ± 0.42 | 829.962 ± 0.43 | 825.299 ± 0.43 | 1309.1 ± 0.83 | 1289.5 ± 0.83 | 1269.7 ± 0.82 | 1250.3 ± 0.82 | 1230.7 ± 0.81
x1 = 0.4162 | 856.225 ± 0.39 | 851.642 ± 0.39 | 847.04 ± 0.4 | 842.409 ± 0.41 | 837.754 ± 0.41 | 1310.7 ± 0.83 | 1291.4 ± 0.83 | 1271.9 ± 0.82 | 1252.8 ± 0.82 | 1233.4 ± 0.81
x1 = 0.4519 | 862.336 ± 0.38 | 857.764 ± 0.38 | 853.179 ± 0.39 | 848.559 ± 0.4 | 843.907 ± 0.41 | 1311.3 ± 0.83 | 1292.2 ± 0.83 | 1272.8 ± 0.82 | 1253.8 ± 0.82 | 1234.6 ± 0.81
x1 = 0.4946 | 869.26 ± 0.37 | 864.701 ± 0.37 | 860.118 ± 0.38 | 855.511 ± 0.39 | 850.865 ± 0.39 | 1311.9 ± 0.83 | 1292.9 ± 0.83 | 1273.7 ± 0.82 | 1254.8 ± 0.82 | 1235.7 ± 0.81
x1 = 0.547 | 877.184 ± 0.35 | 872.638 ± 0.36 | 868.071 ± 0.37 | 863.48 ± 0.38 | 858.867 ± 0.38 | 1312.4 ± 0.83 | 1293.5 ± 0.83 | 1274.5 ± 0.82 | 1255.8 ± 0.82 | 1236.8 ± 0.81
x1 = 0.5938 | 883.779 ± 0.34 | 879.25 ± 0.35 | 874.697 ± 0.36 | 870.123 ± 0.37 | 865.527 ± 0.37 | 1312.6 ± 0.83 | 1293.8 ± 0.83 | 1275 ± 0.82 | 1256.3 ± 0.82 | 1237.5 ± 0.81
x1 = 0.6567 | 891.947 ± 0.33 | 887.44 ± 0.34 | 882.917 ± 0.35 | 878.364 ± 0.35 | 873.793 ± 0.36 | 1312.5 ± 0.83 | 1293.9 ± 0.83 | 1275.2 ± 0.82 | 1256.6 ± 0.82 | 1237.9 ± 0.81
x1 = 0.6997 | 897.047 ± 0.33 | 892.555 ± 0.33 | 888.041 ± 0.34 | 883.505 ± 0.35 | 878.95 ± 0.35 | 1312.2 ± 0.83 | 1293.7 ± 0.83 | 1275.1 ± 0.82 | 1256.5 ± 0.82 | 1238 ± 0.81
x1 = 0.7665 | 904.096 ± 0.32 | 899.635 ± 0.32 | 895.15 ± 0.33 | 890.644 ± 0.34 | 886.119 ± 0.34 | 1311.5 ± 0.83 | 1293 ± 0.83 | 1274.6 ± 0.82 | 1256.1 ± 0.82 | 1237.7 ± 0.81
x1 = 0.8068 | 907.864 ± 0.31 | 903.41 ± 0.32 | 898.94 ± 0.32 | 894.449 ± 0.33 | 889.942 ± 0.34 | 1310.8 ± 0.83 | 1292.3 ± 0.83 | 1274.1 ± 0.82 | 1255.7 ± 0.82 | 1237.4 ± 0.81
x1 = 0.8466 | 911.283 ± 0.3 | 906.844 ± 0.31 | 902.376 ± 0.32 | 897.903 ± 0.32 | 893.412 ± 0.33 | 1310 ± 0.83 | 1291.6 ± 0.83 | 1273.4 ± 0.82 | 1255.2 ± 0.82 | 1236.9 ± 0.81
x1 = 0.9038 | 915.886 ± 0.3 | 911.457 ± 0.3 | 906.999 ± 0.31 | 902.546 ± 0.32 | 898.065 ± 0.32 | 1308.6 ± 0.83 | 1290.3 ± 0.83 | 1272.1 ± 0.82 | 1254.2 ± 0.82 | 1236.1 ± 0.81
x1 = 0.9528 | 919.898 ± 0.29 | 915.486 ± 0.3 | 911.061 ± 0.3 | 906.607 ± 0.31 | 902.137 ± 0.32 | 1307.2 ± 0.83 | 1288.9 ± 0.83 | 1270.9 ± 0.82 | 1253.1 ± 0.82 | 1235.2 ± 0.81
